Laboratory results as given in PubChem BioAssay AID1918938 (Molecular Pharmacology Branch, DTP, NCI, 2023).

Tested on: 556581-035-R-J1-PDC complex spheroid viability
Experiment: Anticancer human tumor 556581-035-R-J1-PDC patient-derived ovarian carcinoma cell line growth inhibition
Conditions: for IC50: curve of first compound; for viability, T/C: stronger effect = lower value
Summary of the method: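 Drug combinations with the LSD1 inhibitor iadademstat tested on tumor cells co-cultured as spheroids with endothelial cells and mesenchymal stem cells. Concentrations descended in half-log increments from clinical Cmax or 10 microM.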

[1] = second compound 0.1 µM, first compound 0.0316 µM
[2] = second compound 0.1 µM, first compound 0.1 µM
[3] = second compound 0.1 µM, first compound 0.316 µM
[4] = second compound 0.1 µM, first compound 1 µM
[5] = second compound 0.1 µM, first compound 3.16 µM
[6] = second compound 0.1 µM, first compound 10 µM
[7] = second compound 0.316 µM, first compound 0.0316 µM
[8] = second compound 0.316 µM, first compound 0.1 µM
[9] = second compound 0.316 µM, first compound 0.316 µM
[10] = second compound 0.316 µM, first compound 1 µM
[11] = second compound 0.316 µM, first compound 3.16 µM
[12] = second compound 0.316 µM, first compound 10 µM
[13] = second compound 1 µM, first compound 0.0316 µM
[14] = second compound 1 µM, first compound 0.1 µM
[15] = second compound 1 µM, first compound 0.316 µM
[16] = second compound 1 µM, first compound 1 µM
[17] = second compound 1 µM, first compound 3.16 µM
[18] = second compound 1 µM, first compound 10 µM
[19] = second compound 3.16 µM, first compound 0.0316 µM
[20] = second compound 3.16 µM, first compound 0.1 µM
[21] = second compound 3.16 µM, first compound 0.316 µM
[22] = second compound 3.16 µM, first compound 1 µM
[23] = second compound 3.16 µM, first compound 3.16 µM
[24] = second compound 3.16 µM, first compound 10 µM
[25] = second compound 10 µM, first compound 0.0316 µM
[26] = second compound 10 µM, first compound 0.1 µM
[27] = second compound 10 µM, first compound 0.316 µM
[28] = second compound 10 µM, first compound 1 µM
[29] = second compound 10 µM, first compound 3.16 µM
[30] = second compound 10 µM, first compound 10 µM
[31] = second compound 0.1 µM, first compound 0.00949 µM
[32] = second compound 0.1 µM, first compound 0.03 µM
[33] = second compound 0.1 µM, first compound 0.0949 µM
[34] = second compound 0.1 µM, first compound 0.3 µM
[35] = second compound 0.316 µM, first compound 0.00949 µM
[36] = second compound 0.316 µM, first compound 0.03 µM
[37] = second compound 0.316 µM, first compound 0.0949 µM
[38] = second compound 0.316 µM, first compound 0.3 µM
[39] = second compound 1 µM, first compound 0.00949 µM
[40] = second compound 1 µM, first compound 0.03 µM
[41] = second compound 1 µM, first compound 0.0949 µM
[42] = second compound 1 µM, first compound 0.3 µM
[43] = second compound 3.16 µM, first compound 0.00949 µM
[44] = second compound 3.16 µM, first compound 0.03 µM
[45] = second compound 3.16 µM, first compound 0.0949 µM
[46] = second compound 3.16 µM, first compound 0.3 µM
[47] = second compound 10 µM, first compound 0.00949 µM
[48] = second compound 10 µM, first compound 0.03 µM
[49] = second compound 10 µM, first compound 0.0949 µM
[50] = second compound 10 µM, first compound 0.3 µM
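Also: spheroids exposed to agents for seven days.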
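For viability, T/C in this document: 100% = DMSO vehicle control wells.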

## CC1(C)CCC(CN2CCN(c3ccc(C(=O)NS(=O)(=O)c4ccc(NCC5CCOCC5)c([N+](=O)[O-])c4)c(Oc4cnc5[nH]ccc5c4)c3)CC2)=C(c2ccc(Cl)cc2)C1 + NC1CC1c1ccc(-c2cccc(O)c2)cc1
Second compound 0.1 µM
  IC50: 4100 nM
Second compound 0.316 µM
  IC50: 3940 nM
Second compound 1 µM
  IC50: 4040 nM
Second compound 3.16 µM
  IC50: 3820 nM
Second compound 10 µM
  IC50: 3230 nM
[1]
  viability, T/C: 89.8%
[2]
  viability, T/C: 85.4%
[3]
  viability, T/C: 73.2%
[4]
  viability, T/C: 76.5%
[5]
  viability, T/C: 65.5%
[6]
  viability, T/C: 3.69%
[7]
  viability, T/C: 83.2%
[8]
  viability, T/C: 82%
[9]
  viability, T/C: 73.2%
[10]
  viability, T/C: 75.4%
[11]
  viability, T/C: 61.6%
[12]
  viability, T/C: 4.26%
[13]
  viability, T/C: 82.6%
[14]
  viability, T/C: 87%
[15]
  viability, T/C: 81.9%
[16]
  viability, T/C: 65.3%
[17]
  viability, T/C: 67.4%
[18]
  viability, T/C: 5.26%
[19]
  viability, T/C: 83.5%
[20]
  viability, T/C: 90.3%
[21]
  viability, T/C: 72.2%
[22]
  viability, T/C: 73.9%
[23]
  viability, T/C: 61.3%
[24]
  viability, T/C: 4.73%
[25]
  viability, T/C: 85.4%
[26]
  viability, T/C: 81.7%
[27]
  viability, T/C: 75.6%
[28]
  viability, T/C: 65.4%
[29]
  viability, T/C: 55.2%
[30]
  viability, T/C: 3.86%

## CC1COCCN1c1cc(C2(S(C)(=N)=O)CC2)nc(-c2ccnc3[nH]ccc23)n1 (stereo not given) + NC1CC1c1ccc(-c2cccc(O)c2)cc1
Second compound 0.1 µM
  IC50: 5950 nM
Second compound 0.316 µM
  IC50: 5940 nM
Second compound 1 µM
  IC50: 5370 nM
Second compound 3.16 µM
  IC50: > 10000 nM
Second compound 10 µM
  IC50: > 10000 nM
[1]
  viability, T/C: 101%
[2]
  viability, T/C: 98.6%
[3]
  viability, T/C: 78.9%
[4]
  viability, T/C: 72.3%
[5]
  viability, T/C: 52.5%
[6]
  viability, T/C: 46.7%
[7]
  viability, T/C: 95.3%
[8]
  viability, T/C: 85.5%
[9]
  viability, T/C: 77.8%
[10]
  viability, T/C: 70.7%
[11]
  viability, T/C: 52.6%
[12]
  viability, T/C: 46.3%
[13]
  viability, T/C: 87.9%
[14]
  viability, T/C: 88.9%
[15]
  viability, T/C: 84.3%
[16]
  viability, T/C: 77.4%
[17]
  viability, T/C: 53.7%
[18]
  viability, T/C: 45.5%
[19]
  viability, T/C: 87.9%
[20]
  viability, T/C: 96%
[21]
  viability, T/C: 85.5%
[22]
  viability, T/C: 70.5%
[23]
  viability, T/C: 54.2%
[24]
  viability, T/C: 50.9%
[25]
  viability, T/C: 88.4%
[26]
  viability, T/C: 84.8%
[27]
  viability, T/C: 78.3%
[28]
  viability, T/C: 69.7%
[29]
  viability, T/C: 51.3%
[30]
  viability, T/C: 54.7%

## CCN(c1cc(-c2ccc(CN3CCOCC3)cc2)cc(C(=O)NCc2c(C)cc(C)[nH]c2=O)c1C)C1CCOCC1 + NC1CC1c1ccc(-c2cccc(O)c2)cc1
Second compound 0.1 µM
  IC50: 776 nM
Second compound 0.316 µM
  IC50: 732 nM
Second compound 1 µM
  IC50: 633 nM
Second compound 3.16 µM
  IC50: 466 nM
Second compound 10 µM
  IC50: 666 nM
[31]
  viability, T/C: 106%
[32]
  viability, T/C: 92.2%
[33]
  viability, T/C: 86.7%
[34]
  viability, T/C: 73.4%
Second compound 0.1 µM, first compound 0.949 µM
  viability, T/C: 42.5%
Second compound 0.1 µM, first compound 3 µM
  viability, T/C: 25.1%
[35]
  viability, T/C: 105%
[36]
  viability, T/C: 95.5%
[37]
  viability, T/C: 78.5%
[38]
  viability, T/C: 69.3%
Second compound 0.316 µM, first compound 0.949 µM
  viability, T/C: 42.7%
Second compound 0.316 µM, first compound 3 µM
  viability, T/C: 27.4%
[39]
  viability, T/C: 94.2%
[40]
  viability, T/C: 84.7%
[41]
  viability, T/C: 84.8%
[42]
  viability, T/C: 66.8%
Second compound 1 µM, first compound 0.949 µM
  viability, T/C: 40.5%
Second compound 1 µM, first compound 3 µM
  viability, T/C: 30.5%
[43]
  viability, T/C: 98.7%
[44]
  viability, T/C: 102%
[45]
  viability, T/C: 78%
[46]
  viability, T/C: 58.1%
Second compound 3.16 µM, first compound 0.949 µM
  viability, T/C: 39.4%
Second compound 3.16 µM, first compound 3 µM
  viability, T/C: 32.5%
[47]
  viability, T/C: 83.6%
[48]
  viability, T/C: 87.7%
[49]
  viability, T/C: 82.1%
[50]
  viability, T/C: 63.6%
Second compound 10 µM, first compound 0.949 µM
  viability, T/C: 44.6%
Second compound 10 µM, first compound 3 µM
  viability, T/C: 30.6%

## Cn1ncnc1C1c2n[nH]c(=O)c3cc(F)cc(c23)NC1c1ccc(F)cc1 (stereo not given) + NC1CC1c1ccc(-c2cccc(O)c2)cc1
Second compound 0.1 µM
  IC50: > 100 nM
Second compound 0.316 µM
  IC50: > 100 nM
Second compound 1 µM
  IC50: > 100 nM
Second compound 3.16 µM
  IC50: > 100 nM
Second compound 10 µM
  IC50: > 100 nM
Second compound 0.1 µM, first compound 0.000316 µM
  viability, T/C: 90.1%
Second compound 0.1 µM, first compound 0.001 µM
  viability, T/C: 89.6%
Second compound 0.1 µM, first compound 0.00316 µM
  viability, T/C: 87.5%
Second compound 0.1 µM, first compound 0.01 µM
  viability, T/C: 88.7%
[1]
  viability, T/C: 96.2%
[2]
  viability, T/C: 81.4%
Second compound 0.316 µM, first compound 0.000316 µM
  viability, T/C: 89.6%
Second compound 0.316 µM, first compound 0.001 µM
  viability, T/C: 98.1%
Second compound 0.316 µM, first compound 0.00316 µM
  viability, T/C: 80.3%
Second compound 0.316 µM, first compound 0.01 µM
  viability, T/C: 84.9%
[7]
  viability, T/C: 94.5%
[8]
  viability, T/C: 74.1%
Second compound 1 µM, first compound 0.000316 µM
  viability, T/C: 82.8%
Second compound 1 µM, first compound 0.001 µM
  viability, T/C: 88.5%
Second compound 1 µM, first compound 0.00316 µM
  viability, T/C: 109%
Second compound 1 µM, first compound 0.01 µM
  viability, T/C: 81.6%
[13]
  viability, T/C: 87%
[14]
  viability, T/C: 81.8%
Second compound 3.16 µM, first compound 0.000316 µM
  viability, T/C: 94.4%
Second compound 3.16 µM, first compound 0.001 µM
  viability, T/C: 90%
Second compound 3.16 µM, first compound 0.00316 µM
  viability, T/C: 81.5%
Second compound 3.16 µM, first compound 0.01 µM
  viability, T/C: 80.5%
[19]
  viability, T/C: 77.7%
[20]
  viability, T/C: 91.6%
Second compound 10 µM, first compound 0.000316 µM
  viability, T/C: 86.8%
Second compound 10 µM, first compound 0.001 µM
  viability, T/C: 83.2%
Second compound 10 µM, first compound 0.00316 µM
  viability, T/C: 86.5%
Second compound 10 µM, first compound 0.01 µM
  viability, T/C: 87.2%
[25]
  viability, T/C: 75.3%
[26]
  viability, T/C: 88.2%

## Nc1ncn(C2CC(O)C(CO)S2)c(=O)n1 (stereo not given) + NC1CC1c1ccc(-c2cccc(O)c2)cc1
Second compound 0.1 µM
  IC50: 37.5 nM
Second compound 0.316 µM
  IC50: 33.1 nM
Second compound 1 µM
  IC50: 34.7 nM
Second compound 3.16 µM
  IC50: 33.7 nM
Second compound 10 µM
  IC50: 28.8 nM
Second compound 0.1 µM, first compound 0.000949 µM
  viability, T/C: 86.7%
Second compound 0.1 µM, first compound 0.003 µM
  viability, T/C: 84.5%
[31]
  viability, T/C: 78.2%
[32]
  viability, T/C: 52%
[33]
  viability, T/C: 34.1%
[34]
  viability, T/C: 20.6%
Second compound 0.316 µM, first compound 0.000949 µM
  viability, T/C: 85.9%
Second compound 0.316 µM, first compound 0.003 µM
  viability, T/C: 80%
[35]
  viability, T/C: 88.1%
[36]
  viability, T/C: 52.4%
[37]
  viability, T/C: 27.9%
[38]
  viability, T/C: 22.4%
Second compound 1 µM, first compound 0.000949 µM
  viability, T/C: 80.5%
Second compound 1 µM, first compound 0.003 µM
  viability, T/C: 83.5%
[39]
  viability, T/C: 70%
[40]
  viability, T/C: 54.1%
[41]
  viability, T/C: 30.8%
[42]
  viability, T/C: 24%
Second compound 3.16 µM, first compound 0.000949 µM
  viability, T/C: 88.7%
Second compound 3.16 µM, first compound 0.003 µM
  viability, T/C: 93.6%
[43]
  viability, T/C: 73.7%
[44]
  viability, T/C: 52.6%
[45]
  viability, T/C: 33.1%
[46]
  viability, T/C: 25.4%
Second compound 10 µM, first compound 0.000949 µM
  viability, T/C: 82.2%
Second compound 10 µM, first compound 0.003 µM
  viability, T/C: 79.7%
[47]
  viability, T/C: 65.4%
[48]
  viability, T/C: 52%
[49]
  viability, T/C: 32.1%
[50]
  viability, T/C: 29.9%
